Assay results: patent US20180298024A1, “CORTISTATIN ANALOGS AND USES THEREOF” (President and Fellows of Harvard College, priority 2015, published 2018)
Several values for one entry are separate records, joined by “and”; a condition that tells them apart may be missing. Equal entries are not always repeated. Where two headings read alike, the source gives them in different places.

Tests used:
[1] = target: hERG (human ether-à-go-go-related gene) potassium channel (Homo sapiens, UniProt Q12809); assay: in vitro
Chain of hERG (human ether-à-go-go-related gene) potassium channel (Q12809 whole entry): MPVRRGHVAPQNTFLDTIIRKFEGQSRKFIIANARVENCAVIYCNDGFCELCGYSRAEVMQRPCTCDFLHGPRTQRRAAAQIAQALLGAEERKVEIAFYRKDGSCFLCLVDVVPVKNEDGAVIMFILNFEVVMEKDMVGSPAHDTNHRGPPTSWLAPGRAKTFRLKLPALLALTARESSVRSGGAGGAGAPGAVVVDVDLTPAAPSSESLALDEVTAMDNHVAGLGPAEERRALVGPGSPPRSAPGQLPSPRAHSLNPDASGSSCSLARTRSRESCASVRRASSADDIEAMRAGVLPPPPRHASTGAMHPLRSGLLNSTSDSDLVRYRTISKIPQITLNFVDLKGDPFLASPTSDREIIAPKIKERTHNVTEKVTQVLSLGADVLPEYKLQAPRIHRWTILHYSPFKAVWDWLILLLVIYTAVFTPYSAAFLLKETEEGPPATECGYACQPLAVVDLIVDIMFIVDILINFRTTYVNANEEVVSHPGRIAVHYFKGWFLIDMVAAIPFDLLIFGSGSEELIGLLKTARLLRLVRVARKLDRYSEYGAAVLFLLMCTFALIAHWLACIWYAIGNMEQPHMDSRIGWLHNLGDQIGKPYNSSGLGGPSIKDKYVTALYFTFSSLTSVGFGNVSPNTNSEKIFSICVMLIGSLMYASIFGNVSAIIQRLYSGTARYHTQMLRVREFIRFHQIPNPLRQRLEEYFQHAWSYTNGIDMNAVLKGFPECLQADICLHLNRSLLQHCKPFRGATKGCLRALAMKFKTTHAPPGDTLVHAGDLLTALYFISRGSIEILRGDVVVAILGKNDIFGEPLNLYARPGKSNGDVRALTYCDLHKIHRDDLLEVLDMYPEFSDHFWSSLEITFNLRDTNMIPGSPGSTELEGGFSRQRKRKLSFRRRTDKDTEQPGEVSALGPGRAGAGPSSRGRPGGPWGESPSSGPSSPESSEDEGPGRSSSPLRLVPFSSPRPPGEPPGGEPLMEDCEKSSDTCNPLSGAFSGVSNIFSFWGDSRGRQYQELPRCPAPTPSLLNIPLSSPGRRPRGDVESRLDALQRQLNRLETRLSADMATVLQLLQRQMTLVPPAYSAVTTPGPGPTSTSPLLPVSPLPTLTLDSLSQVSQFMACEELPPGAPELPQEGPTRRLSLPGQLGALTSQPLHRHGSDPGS
Protocol: (§1) The in vitro effects of compounds A, B, C, D, E, and F on the hERG (human ether-à-go-go-related gene) potassium channel current (a surrogate for IKr, the rapidly activating, delayed rectifier cardiac potassium current) expressed in mammalian cells were evaluated at room temperature using the QPatch HT (Sophion Bioscience A/S, Denmark), an automatic parallel patch clamp system. The test articles were evaluated at 1 μM, 3 μM, […] and 30 μM. Each test article concentration was tested in at least three cells. The duration of exposure to each test article concentration was a minimum of 3 minutes.

[2] = target: hERG potassium channel (Homo sapiens, UniProt Q12809); assay: in vitro; details: human
Chain of hERG potassium channel (Q12809 whole entry): as above
Protocol: as §1

[3] = target: hERG (Homo sapiens, UniProt Q12809); assay: Panlab hERG assay; format: binding; parameters: Eurofins Panlabs
Chain of hERG (Q12809 whole entry): as above
Protocol: (§2) Compounds A, B, C, and D were tested in Panlab assays to evaluate potential off-target activity using standard assay kits. Methods employed in these studies have been adapted from the scientific literature to maximize reliability and reproducibility. Reference standards were run as an integral part of each assay to ensure the validity of the results obtained.
(§3) Compound B was tested in a subset of 30 Panlab assays that included the hits from screening Compound F in addition to the Panlab hERG and sodium channel assay. This allows direct comparison of Compound B to Compound F in terms of off-target profile.

[4] = target: T1, CDK8 (Homo sapiens, UniProt P49336); assay: CDK8 Kd and residence time; format: binding
T1 sequence (P49336 whole entry): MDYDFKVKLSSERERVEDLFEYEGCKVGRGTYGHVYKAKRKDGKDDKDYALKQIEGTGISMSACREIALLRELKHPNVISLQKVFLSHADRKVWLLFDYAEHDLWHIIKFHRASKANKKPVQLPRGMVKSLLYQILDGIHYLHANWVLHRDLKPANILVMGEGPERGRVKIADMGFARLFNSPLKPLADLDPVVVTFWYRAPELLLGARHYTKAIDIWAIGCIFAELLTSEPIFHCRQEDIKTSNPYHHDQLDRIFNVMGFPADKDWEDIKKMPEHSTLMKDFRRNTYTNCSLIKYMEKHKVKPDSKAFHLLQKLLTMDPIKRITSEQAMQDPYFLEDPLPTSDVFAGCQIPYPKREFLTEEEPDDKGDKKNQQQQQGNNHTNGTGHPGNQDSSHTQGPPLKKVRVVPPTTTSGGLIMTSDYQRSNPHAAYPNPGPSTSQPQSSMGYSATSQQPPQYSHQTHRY
T1 sequence (P24863 whole entry partner): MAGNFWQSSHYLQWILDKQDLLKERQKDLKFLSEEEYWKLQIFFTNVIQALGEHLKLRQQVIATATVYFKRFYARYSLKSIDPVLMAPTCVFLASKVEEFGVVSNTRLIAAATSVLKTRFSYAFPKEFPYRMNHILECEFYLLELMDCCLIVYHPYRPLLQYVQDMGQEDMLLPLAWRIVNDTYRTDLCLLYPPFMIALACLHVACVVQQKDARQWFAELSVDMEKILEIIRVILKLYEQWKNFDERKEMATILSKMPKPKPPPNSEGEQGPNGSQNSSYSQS

[5] = tested on: MOLM-14; assay: Half-maximal growth inhibition (GI50), MOLM-14; format: cell-based; details: Homo sapiens, 240 h, AML, M5, MLL-AF9, read-out: GI50 (nM), day 10
Protocol: (§4) Compounds A, B, C, D, and F were tested against various cell lines to probe their broad utility against cancer. Cortistatin A (CA) was also tested against the cell lines in a head to head fashion.

[6] = Pharmacokinetic profile in mice (plasma, LC-MS/MS); details: for ½ life: CD-1 mice
Protocol: Formulation correction for salt content was not required for this study. Materials were vortexed and sonicated at room temperature following addition of vehicle. The solutions were maintained at ambient temperature stirring in the dark for at least 30 minutes prior to dose administration. The formulations were then vortexed and sonicated briefly to help ensure solubility.
Mice were selected from the Testing Facility's rodent colony. The animals were enrolled in the study based on acceptable health as determined by Testing Facility personnel on the day of test article administration. Animals were held in environmental acclimation for at least 48 hours (±6 hours) prior to dosing. Animals were maintained at temperatures between 16-26° C. (62-78° F.) with the humidity range between 30-70%. Animals in all groups were fasted overnight and food was returned 4 hours following dosing. Water was provided ad libitum throughout the study.
Whole blood samples for plasma were either collected from each animal by either direct vein puncture of the submandibular vein (survival blood collection) or by cardiac puncture following euthanasia with CO2 (terminal blood collection). […] Following collection, whole blood was placed into a tube containing K2EDTA and immediately placed on wet ice until processed for plasma. Whole blood samples were centrifuged at 2200×g for 10 minutes in a refrigerated centrifuge (5±3° C.) to isolate plasma. The samples were transferred to individual polypropylene containers and immediately placed on dry ice before storage at −70±10° C. until analysis. Plasma collected from undosed spare animals was pooled and analyzed as well.
Once collected the mouse plasma studies were quantitated using LCMS/MS spectroscopy to determine the concentration of compound. […] Eight calibration standards containing the analyte and internal standard imipramine were prepared and analyzed at the beginning and at the end of the sequence. A calibration curve was generated and sample concentrations calculated using the Quantitation software MassHunter.

[7] = target: T1, CDK8; assay: CDK8 IC50 determination (Example 9); format: biochemical
[8] = tested on: sodium channel; assay: Panlab sodium channel assay; format: binding; details: 10 μM
Protocol: as §2, §3

[9] = tested on: HEL; assay: Half-maximal growth inhibition (GI50), HEL; format: cell-based; details: Homo sapiens, 240 h, AML, erythroleukemia, JAK2V617F, read-out: GI50 (nM), day 10
Protocol: as §4

[10] = tested on: off-targets (Panlabs); assay: Panlab off-target assay panel; format: binding; details: 10 μM
Protocol: as §2
IC50 values were determined by a non-linear, least squares regression analysis using MathIQ™ (ID Business Solutions Ltd., UK). Where inhibition constants (Ki) are presented, the Ki values were calculated using the equation of Cheng and Prusoff (Cheng, Y., Prusoff, W. H., Biochem. Pharmacol. 22:3099-3108, 1973) using the observed IC50 of the tested compound, the concentration of radioligand employed in the assay, and the historical values for the KD of the ligand (obtained experimentally at Eurofins Panlabs, Inc.). Where presented, the Hill coefficient (nH), defining the slope of the competitive binding curve, was calculated using MathIQ™.

[11] = tested on: SET-2 AML cell line (FLAG-CDK8 WT vs FLAG-CDK8-W105M); assay: CDK8 W105M versus wild type SET-2 cell competition (flow cytometry); format: cell-based; details: after 3 days and 7 days of treatment
Protocol: Compounds A, B, C, and D inhibit SET-2 AML cell line proliferation by inhibiting CDK8. ZsGreen (Clontech) and FLAG-CDK8 WT (wild type) or mCherry (Clontech) and FLAG-CDK8-W105M were expressed in SET 2 cells. The cells were mixed, the ratio of red to green fluorescence was determined by flow cytometry, and the cells were treated with the indicated compounds. After 3 days and 7 days of treatment, the ratio of red to green fluorescent cells was determined.

[12] = TurboSol solubility evaluation in physiological saline; format: physicochemical; details: HB-PS+0.3% DMSO
[13] = target: T1, CDK8; assay: Western blot study of CDK8 inhibition; format: cell-based; details: decreased staining results from inhibition of the target
Protocol: CDK8 inhibition in cells as measured by inhibition of Interferon-gamma (IFNγ)-stimulated STAT1-S727 phosphorylation. The compounds were provided as 200 μl of 1×10^−03 M/100% stock solutions in vials. The vials arrived in good condition and 2×100 μl each of the stock solutions were transferred into wells A2 to H2 of a 96 well “master plate” (barcoded “11273-UNH-01”), according to Table 12.
The dose response curves presented above were corroborated with western blot studies.

[14] = tested on: MV4; 11; assay: Half-maximal growth inhibition (GI50), MV4; 11; format: cell-based; details: Homo sapiens, 240 h, AML, M5, MLL-AF4, read-out: GI50 (nM), day 10
Protocol: as §4

[15] = tested on: SKNO-1; assay: Half-maximal growth inhibition (GI50), SKNO-1; format: cell-based; details: Homo sapiens, 240 h, AML, M2, RUNX1-RUNX1T1, read-out: GI50 (nM), day 10
Protocol: as §4

[16] = Individual Data Points (% Inhibition), hERG
[17] = CD-1, mouse, plasma, iv, 3 mg/kg
[18] = CD-1, mouse, plasma, po, 10 mg/kg

## C[C@]12CC=C3C=C4CC[C@@H](N5C[C@H](O)[C@@H](O)C5)C[C@]45CC[C@]3(O5)[C@@H]1CC[C@@H]2c1ccc2ccncc2c1 [Compound D]
[1]
  activity in the hERG assay: single digit micromolar activity
[1]; hERG IC50, QPatch HT, room temperature
  IC50: 6280 nM and 6300 nM
[1]; human
  fold less hERG activity than Compound E: 10-100 fold
[2]; [16]
  inhibition at 1 µM: 11.5%
  inhibition at 3 µM: 25.1%
  inhibition at 10 µM: 71.6%
  inhibition at 30 µM: 97.9%
[2]; Mean % hERG Inhibition
  inhibition at 1 µM: 8%
  inhibition at 3 µM: 27.3%
  inhibition at 10 µM: 63.9%
  inhibition at 30 µM: 91.3%
[3]
  inhibition at 10 µM: 20%
[4]
  Kd: 0.2 ± 0.02 nM
[5]
  GI50: 6 nM
[6]; [17]
  Vd: 5.41 L/kg
  clearance: 18 mL/min/kg
[6]; [18]
  AUC(0-inf): 1390 ng·h/mL
  Cmax: 377 nM
  Tmax: 2 h
  bioavailability: 15%
  concentration at 24 h: 7.6 nM
[6]; IV 3 mg/kg
  ½ life: 6.60 h
[6]; PO 10 mg/kg
  ½ life: 4.25 h
[6]; male, CD-1, mouse, plasma, iv, 3 mg/kg
  AUC(0-inf): 2780 ng·h/mL
[7]; read-out: IC50 (nM) against CDK8, average
  IC50: 6.4 nM
[7]; tested in duplicate, read-out: IC50 against CDK8, single determinations
  IC50: 6.4 nM and 6.5 nM
[8]
  % inhibition, Panlab sodium channel assay: 65%
[9]
  GI50: > 1000 nM
[10]; Safety Panel = 28 binding assays (Eurofins Panlabs)
  number of targets with ≥75% inhibition: 3
[10]; subset of 30 Panlab assays
  number of targets with greater than 75% inhibition: 3
[11]
  ratio of red (CDK8 W105M) to green (wild type) fluorescent cells: dose-dependently shifted the ratio of red to green cells
[12]; 1 μM
  Average LSU (×1000): 4.7 LSU (×1000)
[12]; 3 μM
  Average LSU (×1000): 6.4 LSU (×1000)
[12]; 10 μM
  Average LSU (×1000): 7.0 LSU (×1000)
[12]; 30 μM
  Average LSU (×1000): 16.6 LSU (×1000)
[12]
  solubility in the TurboSol assay: slightly insoluble at 30 μM concentrations
[13]
  inhibition of CDK8 in Western blot: dose dependent response
[14]
  GI50: 1.5 nM
[15]
  GI50: < 1 nM
